The supplement of paper PMC10307832

What was measured:
Assay in all cases: relative viability (nuclei count vs DMSO), 5 days (fraction); higher = more cells survive
SGI-1776 + Linsitinib = compound: CN1CCC(CNc2ccc3ncc(-c4cccc(OC(F)(F)F)c4)n3n2)CC1 [SGI-1776] + C[C@]1(O)C[C@@H](c2nc(-c3ccc4ccc(-c5ccccc5)nc4c3)c3c(N)nccn32)C1 [Linsitinib] (partner 1 µM)
How it was run: (§1)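 Relative viability was taken as the ratio of nuclei in treated wells to nuclei in vehicle wells. Lung cancer cell lines in 1536-well plates received compounds by pin tool one day after seeding, either one drug alone or a fixed anchor-drug dose plus five library-drug doses (not always all listed) in √10 steps. Nuclei were counted on 4× images after 5 days of treatment, and values are medians of duplicate plates.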

Entinostat + Palbociclib = compound: Nc1ccccc1NC(=O)c1ccc(CNC(=O)OCc2cccnc2)cc1 [Entinostat] + CC(=O)c1c(C)c2cnc(Nc3ccc(N4CCNCC4)cn3)nc2n(C2CCCC2)c1=O [Palbociclib] (partner 0.5 µM)
How it was run: as §1

SGI-1776 + Pictilisib = compound: CN1CCC(CNc2ccc3ncc(-c4cccc(OC(F)(F)F)c4)n3n2)CC1 [SGI-1776] + CS(=O)(=O)N1CCN(Cc2cc3nc(-c4cccc5[nH]ncc45)nc(N4CCOCC4)c3s2)CC1 [Pictilisib] (partner 1 µM)
How it was run: as §1

Entinostat + Pemetrexed = compound: Nc1ccccc1NC(=O)c1ccc(CNC(=O)OCc2cccnc2)cc1 [Entinostat] + Nc1nc2[nH]cc(CCc3ccc(C(=O)N[C@@H](CCC(=O)O)C(=O)O)cc3)c2c(=O)[nH]1 [Pemetrexed] (partner 0.2 µM)
How it was run: as §1

Cell Line	relative viability (SGI-1776 + Linsitinib; first compound 0.08 µM)	relative viability (SGI-1776 + Linsitinib; first compound 0.8 µM)	relative viability (SGI-1776 + Linsitinib; first compound 2.53 µM)	relative viability (SGI-1776 + Linsitinib; first compound 8 µM)	relative viability (Entinostat + Palbociclib; first compound 0.02 µM)	relative viability (Entinostat + Palbociclib; first compound 0.06325 µM)	relative viability (Entinostat + Palbociclib; first compound 0.2 µM)	relative viability (Entinostat + Palbociclib; first compound 0.6325 µM)	relative viability (Entinostat + Palbociclib; first compound 2 µM)	relative viability (SGI-1776 + Pictilisib; first compound 0.08 µM)	relative viability (SGI-1776 + Pictilisib; first compound 0.8 µM)	relative viability (SGI-1776 + Pictilisib; first compound 2.53 µM)	relative viability (SGI-1776 + Pictilisib; first compound 8 µM)	relative viability (Entinostat + Pemetrexed; first compound 0.02 µM)	relative viability (Entinostat + Pemetrexed; first compound 0.06325 µM)	relative viability (Entinostat + Pemetrexed; first compound 0.2 µM)	relative viability (Entinostat + Pemetrexed; first compound 0.6325 µM)	relative viability (Entinostat + Pemetrexed; first compound 2 µM)
RERF-LC-KJ	0.909	0.877	0.9	0.711	1.06	1.09	1	0.584	0.278	0.556	0.533	0.568	0.353	0.494	0.486	0.474	0.408	0.319
NCI-H1915	1.11	1.12	1.13	1.1	0.51	0.494	0.43	0.383	0.208	0.934	0.979	0.964	0.838	0.417	0.536	0.475	0.403	0.188
NCI-H647	1.29	1.16	0.978	0.739	0.318	0.343	0.337	0.0924	0.0625	0.474	0.434	0.247	0.219	0.192	0.184	0.161	0.0878	0.0714
SK-LU-1	1.33	1.24	1.06	0.633	0.361	0.395	0.361	0.311	0.316	0.609	0.623	0.409	0.361	1	0.921	0.988	0.879	0.485
NCI-H441	0.506	0.588	0.645	0.354	0.218	0.231	0.238	0.171	0.129	0.399	0.62	0.564	0.299	0.287	0.29	0.255	0.227	0.166
COR-L 105	1.1	0.927	0.874	0.717	0.376	0.406	0.38	0.43	0.355	0.409	0.389	0.342	0.308	1.12	1.23	1.12	0.816	0.56
NCI-H2009	1.22	1.16	1.3	1.09	0.189	0.301	0.187	0.253	0.214	0.764	0.93	0.682	0.474	0.949	0.965	0.963	0.84	0.619
NCI-H1563	1.14	1.19	1.16	1.08						0.707	0.588	0.583	0.467	0.77	0.906	0.837	0.826	0.679
PC-14	1.06	0.965	0.938	0.802	0.521	0.493	0.449	0.157	0.0723	0.667	0.681	0.747	0.195	0.137	0.163	0.139	0.198	0.146
